Our source for the IC50 values is ChEMBL document CHEMBL1156569, “Structural basis for the improved drug resistance profile of new generation benzophenone non-nucleoside HIV-1 reverse transcriptase inhibitors” (J Med Chem, 2008).

Format in all cases: functional, organism-based
Common to all, as to details: Human immunodeficiency virus 1, HeLa

The subject of experiment [1] is Human immunodeficiency virus 1. In words: Antiviral activity against NNRTI-resistant HIV1 with reverse transcriptase Y181C mutant in HeLa cells by MAGI assay.
The test system of experiment [2] is Human immunodeficiency virus 1. In words: Antiviral activity against NNRTI-resistant HIV1 with reverse transcriptase V106I mutant in HeLa cells by MAGI assay.
Experiment [3] relates to Human immunodeficiency virus 1. As to the kind of experiment: Antiviral activity against NNRTI-resistant HIV1 with reverse transcriptase P236L mutant in HeLa cells by MAGI assay.
For experiment [4], the system named is Human immunodeficiency virus 1. As to the kind of experiment: Antiviral activity against NNRTI-resistant HIV1 with reverse transcriptase G190E mutant in HeLa cells by MAGI assay.
Experiment [5] has as its system Human immunodeficiency virus 1. As to the kind of experiment: Antiviral activity against NNRTI-resistant HIV1 with reverse transcriptase V106A mutant in HeLa cells by MAGI assay.
Experiment [6] deals with Human immunodeficiency virus 1. In words: Antiviral activity against NNRTI-resistant HIV1 with reverse transcriptase Y188L mutant in HeLa cells by MAGI assay.
Experiment [7] deals with Human immunodeficiency virus 1. As to the kind of experiment: Antiviral activity against NNRTI-resistant HIV1 with reverse transcriptase V106I/Y181C mutant in HeLa cells by MAGI assay.
Experiment [8] deals with Human immunodeficiency virus 1. As to the kind of experiment: Antiviral activity against NNRTI-resistant HIV1 with reverse transcriptase K103N/Y181C mutant in HeLa cells by MAGI assay.
Experiment [9] concerns Human immunodeficiency virus 1. In words: Antiviral activity against NNRTI-resistant HIV1 with reverse transcriptase K103N mutant in HeLa cells by MAGI assay.
Experiment [10] concerns Human immunodeficiency virus 1. As to the kind of experiment: Antiviral activity against NNRTI-resistant HIV1 with reverse transcriptase G190S mutant in HeLa cells by MAGI assay.
In experiment [11] the test system is Human immunodeficiency virus 1. As to the kind of experiment: Antiviral activity against NNRTI-resistant HIV1 with reverse transcriptase V106M mutant in HeLa cells by MAGI assay.
Experiment [12] relates to Human immunodeficiency virus 1. In words: Antiviral activity against NNRTI-resistant HIV1 with reverse transcriptase P225H mutant in HeLa cells by MAGI assay.
In experiment [13] the test system is Human immunodeficiency virus 1. In words: Antiviral activity against NNRTI-resistant HIV1 with reverse transcriptase K101E mutant in HeLa cells by MAGI assay.
For experiment [14], the system named is Human immunodeficiency virus 1. As to the kind of experiment: Antiviral activity against NNRTI-resistant HIV1 with reverse transcriptase V106A/Y181C mutant in HeLa cells by MAGI assay.
Experiment [15] deals with Human immunodeficiency virus 1. In words: Antiviral activity against NNRTI-resistant HIV1 with reverse transcriptase Y188C mutant in HeLa cells by MAGI assay.
The test system of experiment [16] is Human immunodeficiency virus 1. As to the kind of experiment: Antiviral activity against NNRTI-resistant HIV1 with reverse transcriptase V108I/Y181C mutant in HeLa cells by MAGI assay.
Experiment [17] deals with Human immunodeficiency virus 1. In words: Antiviral activity against wild type HIV1 in HeLa cells by MAGI assay.
Experiment [18] has as its system Human immunodeficiency virus 1. As to the kind of experiment: Antiviral activity against NNRTI-resistant HIV1 with reverse transcriptase K103N/V108I mutant in HeLa cells by MAGI assay.
Experiment [19] concerns Human immunodeficiency virus 1. In words: Antiviral activity against NNRTI-resistant HIV1 with reverse transcriptase L100I mutant in HeLa cells by MAGI assay.
In experiment [20] the test system is Human immunodeficiency virus 1. In words: Antiviral activity against NNRTI-resistant HIV1 with reverse transcriptase V108I mutant in HeLa cells by MAGI assay.
Experiment [21] relates to Human immunodeficiency virus 1. As to the kind of experiment: Antiviral activity against NNRTI-resistant HIV1 with reverse transcriptase E138K mutant in HeLa cells by MAGI assay.
In experiment [22] the test system is Human immunodeficiency virus 1. As to the kind of experiment: Antiviral activity against NNRTI-resistant HIV1 with reverse transcriptase G190A mutant in HeLa cells by MAGI assay.
Experiment [23] has as its system Human immunodeficiency virus 1. As to the kind of experiment: Antiviral activity against NNRTI-resistant HIV1 with reverse transcriptase K103N/L100I mutant in HeLa cells by MAGI assay.
Experiment [24] has as its system Human immunodeficiency virus 1. As to the kind of experiment: Antiviral activity against NNRTI-resistant HIV1 with reverse transcriptase K103N/G190A mutant in HeLa cells by MAGI assay.
Experiment [25] deals with Human immunodeficiency virus 1. As to the kind of experiment: Antiviral activity against NNRTI-resistant HIV1 with reverse transcriptase K103N/P225H mutant in HeLa cells by MAGI assay.

In general, IC50 refers to the concentration that gives 50% inhibition. A high value points to weaker potency.

SMILES strings stand for the structures.

Take `O=C1Nc2ccc(Cl)cc2C(C#CC2CC2)(C(F)(F)F)O1` (single isomer, unassigned) [EFAVIRENZ]: the IC50 in [1] worked out at 0.8 nM; in [2], 0.9 nM; in experiment [3], 0.6 nM; in experiment [4], 1 nM; in [5], 0.8 nM; in [6], 154 nM. Besides, the IC50 was 3 nM in experiment [7]; 44 nM in experiment [8]; 17 nM in [9]; 89 nM in [10]; 7.2 nM in [11]; 1.3 nM in [12]. Besides, the IC50 came to 2.3 nM in experiment [13]; 2 nM in experiment [14]; 1.2 nM in experiment [15]; 2.7 nM in [16]; 0.4 nM in [17]; 94 nM in experiment [18]. Besides, the IC50 was 21 nM in [19]; 1.8 nM in [20]; 1.2 nM in experiment [21]; 5.9 nM in experiment [22]; 1200 nM in experiment [23].
Regarding `CC(C)Nc1cccnc1N1CCN(C(=O)c2cc3cc(NS(C)(=O)=O)ccc3[nH]2)CC1` [DELAVIRDINE], the IC50 in experiment [2] was 22 nM; in [24] it was 730 nM; in [3], > 2000 nM; in [5] it was 750 nM; in experiment [25] it was > 2000 nM; in experiment [7] it was 943 nM. For the same molecule, the IC50 was > 2000 nM in experiment [8]; 1600 nM in experiment [9]; 537 nM in experiment [13]; > 2000 nM in [14]; 1620 nM in experiment [15]; 88 nM in experiment [17]. Further, the IC50 was > 2000 nM in experiment [18], 773 nM in experiment [19], 21 nM in experiment [22] and > 2000 nM in experiment [23].
As to `Cc1cc(S(N)(=O)=O)ccc1NC(=O)COc1ccc(Cl)cc1C(=O)c1cc(F)cc(C(F)(F)F)c1`, the IC50 in experiment [1] worked out at 2.1 nM; in experiment [2], 2.3 nM; in experiment [24], 13 nM; in experiment [3], 3.4 nM; in experiment [4], 3.9 nM; in experiment [5], 9.3 nM. The IC50 in experiment [6] amounted to 66 nM; in experiment [25] it was 1.4 nM; in experiment [7], 10 nM; in experiment [8], 3.3 nM; in [9] it was 1.7 nM; in experiment [12], 0.7 nM. Also, the IC50 was found to be 3.1 nM in [13]; 13 nM in experiment [14]; 0.3 nM in experiment [15]; 3.2 nM in [16]; 1.2 nM in [17]; 2.6 nM in [18]. Also, the IC50 in experiment [19] came out at 1.1 nM; in [20], 1.8 nM; in experiment [21], 2.7 nM; in experiment [22], 4 nM; in experiment [23], 2.8 nM.
In the case of `Cc1cc(S(N)(=O)=O)ccc1NC(=O)COc1ccc(Cl)cc1C(=O)c1cc(Cl)cc(C#N)c1`, the IC50 in experiment [1] was 0.4 nM; in experiment [2] it was 0.8 nM; in [24], 3.3 nM; in [3] it was 0.4 nM; in experiment [4] it was 0.4 nM; in experiment [5], 1.1 nM. The IC50 in experiment [6] was found to be 14 nM; in [25], 0.7 nM; in experiment [7], 3.8 nM; in experiment [8], 1.2 nM; in experiment [9], 0.4 nM; in experiment [10], 0.7 nM. For the same molecule, the IC50 in experiment [11] amounted to 0.4 nM; in [13], 0.6 nM; in experiment [14], 1 nM; in experiment [15], 0.04 nM; in [16], 0.6 nM; in experiment [17] it was 0.2 nM. Also, the IC50 came out at 0.9 nM in experiment [18]; 0.3 nM in experiment [19]; 0.7 nM in experiment [20]; 1.6 nM in experiment [21]; 0.6 nM in [22]; 0.9 nM in [23].
For `Cc1ccnc2c1NC(=O)c1cccnc1N2C1CC1` [NEVIRAPINE], the IC50 in experiment [1] was > 2000 nM; in [2] it was 89 nM; in [24], > 2000 nM; in experiment [3], 59 nM; in experiment [4], 83 nM; in experiment [5] it was 1870 nM. The IC50 in experiment [6], in [25], in experiment [7], in [8], in [9] and in experiment [10] was > 2000 nM in each case. The IC50 in experiment [11] was > 2000 nM; in [12], 118 nM; in experiment [13], 409 nM; in experiment [14] it was > 2000 nM; in experiment [15], 801 nM; in experiment [16], > 2000 nM. The IC50 in experiment [17] is 53 nM; in [18], > 2000 nM; in [19] it was 304 nM; in experiment [20] it was 294 nM; in experiment [21], 71 nM; in experiment [22] it was > 2000 nM. The IC50 in [23] is > 2000 nM.
As for `O=C(COc1ccc(Cl)cc1C(=O)c1ccccc1)Nc1ccccc1`, the IC50 in [1] came out at 162 nM; in experiment [2], 18 nM; in experiment [24], 661 nM; in [3], 5.4 nM; in experiment [4], 8.3 nM; in experiment [5] it was 696 nM. For the same molecule, the IC50 was > 2000 nM in experiment [6]; 56 nM in experiment [25]; 1900 nM in experiment [7]; 1050 nM in experiment [8]; 25 nM in experiment [9]; 135 nM in experiment [10]. Moreover, the IC50 in experiment [11] was found to be 155 nM; in [12], 3.3 nM; in experiment [13] it was 13 nM; in experiment [14] it was 902 nM; in experiment [15] it was 122 nM; in experiment [16] it was 638 nM. The IC50 in experiment [17] was determined as 2 nM; in [18], 347 nM; in experiment [19] it was 21 nM; in [20], 19 nM; in experiment [21], 27 nM; in experiment [22] it was 31 nM. In addition, in experiment [23], the IC50 was determined as 269 nM.
